Assay results taken from patent publication US20210332139A1, “MODULATION OF LEUKOCYTE ACTIVITY IN TREATMENT OF NEUROINFLAMMATORY DEGENERATIVE DISEASE” (Leuvas Therapeutics, priority 2013, published 2021).
Where “and” joins values, the source holds several entries; their conditions need not be identical. Equal entries are not always repeated.

Key:
[1] = system: Bend.3 endothelial cell line; assay: Adhesion molecule expression on Bend.3 endothelial cells (immunofluorescence); assay type: cell-based, mouse; design: key: −: VCAM-1 and selectins were not expressed (indicated by -, Table 2); constitutively expressed at low levels on endothelial cells (indicated by +/−, some vessels were positive for ICAM-1, Table 2); an increase of ICAM-1 expression (indicated by +, Table 2); settings: Bend.3 cells, 10 μM Aβ1-42 oligomers, 18 h
Description: We performed in vitro experiments to study the effect of soluble Aβ1-42 oligomers on the endothelial cell line Bend.3, derived from mouse cerebral cortex purchased by ATCC& Cell Biology Collection (CRL-2299TM).
Briefly, Bend.3 were cultured at a concentration of 20×10^3/ml on a glass coverslip in 24-well plates containing DMEM supplemented with 10% Fetal Calf Serum (FCS). Cells were stimulated with 10 μM Aβ 1-42, for 18 h in DMEM with 1% FCS. […] positive control, cells were treated with 25 U/ml of TNFα for 18 h in DMEM with 1% FCS. Bend.3 were rinsed with PBS and fixed with 4% PFA for 10 minutes. Cells were washed with PBS incubated with blocking buffer for 1 h at RT° C. Primary antibodies were diluted in 1% Bovine Serum Albumin (BSA) PBS. Cells were incubated overnight at 4° C. with 50 μg/ml anti-VCAM (hybridoma MK2.7), 10 μg/ml anti-ICAM (hybridoma YN1.7), 0.5 μg/ml anti-CD31 (370700, Invitrogen), 5 μg/ml anti-E-selectin (hybridoma RME-1) and 1.5 μg/ml anti-P-selectin (CD62P, BD Pharmigen). The day after, cells were rinsed 2 times with PBS and then incubated with 7.5 μg/ml biotinylated secondary antibody (rabbit anti-rat, T0226, VectorLab) for 1 h at RT° C. Cells were rinsed 2 times with PBS and incubated with 25 μg/ml Avidin-TexasRed (A2006, Vector Lab) for 1 h at RT° C. in the dark. After rinsing in PBS, cells were incubated with 1 μg/ml Dapi (D9542, Sigma-Aldrich, St. Louis, Mo.), for 5 minutes in the dark. Finally, glass coverslip was transferred on glass slides and mounted with Dako medium (S3023, DAKO NORTH AMERICA, Carpinteria, Calif.). Glass slides were kept at 4° C. in the dark and acquired by LEICA fluorescence microscopy (DM6000B, LEICA, Germany).
We analyzed the expression of VCAM-1, ICAM-1, E- and P-selectin on Bend.3 after Aβ1-42 oligomers stimulation. TNF-α stimulation, which is well known to up-regulate the adhesion molecules expression, was used as positive control. We evaluated a dose-response effect of Aβ1-42 soluble oligomers on Bend.3 cells, ranging from 1 to 10 μM after 6 or 18 hours of treatment. After 18 h of treatment with 10 μM Aβ we observed a significant up-regulation of […] compared to non-stimulated control cells (CTRL) (Table 2). […] ICAM-1 was constitutively expressed at low levels on endothelial cells (indicated by +/−, some vessels were positive for ICAM-1, Table 2), but 18 h treatment with Aβ1-42 led to an increase of ICAM-1 expression (indicated by +, Table 2).

mouse neutrophils = assay: Isoluminol chemiluminescence ROS assay, mouse neutrophils; assay type: cell-based; settings: mean+/−SD
Description: Isoluminol-based chemiluminescence assays were performed in HGCa in the presence of horseradish peroxidase (HRP) and isoluminol (both from Sigma-Aldrich) in a temperature-controlled Multilabel Count Victor X5 (Perkin Elmer). Assays were run in dark 96 well plates precoated with 250 μg/ml human fibrinogen in HGCa containing (final concentration): 100 μM isoluminol and 8 U/ml HRP. After addition of 1×10^5 human neutrophils or 7.5×10^5 mouse neutrophils, plates were left at 37° C. for 5-10 min and the reaction started by addition of the stimulus. Light emission was recorded every minute.
We used the chemotactic peptide fMLP as positive control. […] Data are mean+/−SD for three independent experiments.
Data are mean+/−SD counts per second.

neutrophils = assay: Rapid adhesion of neutrophils, soluble versus fibrillary Aβ1-42; assay type: cell-based; settings: mean+/−SD
Excerpt: Although two-times less efficient than the soluble form, fibrillary Aβ triggered a significant increase of rapid neutrophil adhesion on both ICAM-1 and fibrinogen (Table 8; data are expressed as the mean+/−SD of bound cells in 0.2 mm^2 from three independent experiments made in duplicate).

human primary PMNs = assay: Static adhesion of human primary PMNs to ICAM-1 with signaling inhibitors; assay type: cell-based; settings: 10 μM Aβ, 1 min; listed as Aβ oligo
Description: As a model system, human primary PMNs were isolated form healthy donors stimulated to very rapid adhesion to purified human ICAM-1, ligand for the β2 integrins LFA-1 and Maci. fMLP (the classical chemoattractant) was the positive control. […] PMNs were treated for 30 min. with different concentrations of inhibitors followed by stimulation for 1 min with 50 nM fMLP or with 10 μM Aβ. The number of adherent cells was quantified by computer-assisted evaluation. Statistical analysis was SD.

lymphocytes = assay: Rapid adhesion in lymphocytes; assay type: cell-based; settings: lymphocytes lack fMLP receptors, result in words
Description: It is known that one of the receptors for Aβ is the receptor for fMLP, formylpeptide chemotactic receptor (FPR). To evaluate the contribution of this GPCR receptor on Aβ-dependent neutrophil adhesion, we inhibited its function using boc-MLF, a formyl-peptide chemotactic receptor antagonist. Human neutrophils were incubated for 2 minutes with buffer (control) or with oligomeric Aβ. 0.1 μM fMLP was used as a positive control. Values are expressed as the mean counts of bound cells in 0.2 mm^2 from three independent experiments in duplicate. Error bars represent SD. […] To exclude the possibility that rapid adhesion triggering was a consequence of a generic plasma membrane alteration due to the lipophilic nature of Aβ, we evaluated rapid adhesion in lymphocytes, which are known to lack fMLP receptors.

Abeta 1-42: soluble oligomeric amyloid-beta 1-42 peptide used as stimulus
CD31 expression (endothelial cell marker) [1]: +
E-sel expression [1]: +
ICAM-1 expression [1]: +
P-sel expression [1]: +
VCAM-1 expression [1]: +
ROS generation (chemiluminescence) (mouse neutrophils; 1 min): 226 ± 34 counts per second
ROS generation (chemiluminescence) (mouse neutrophils; 2 min): 103 ± 17 counts per second
Rapid adhesion to Fibrinogen (neutrophils; 15 μM): 180.7 ± 30.7 bound cells in 0.2 mm^2
Rapid adhesion to ICAM-1 (neutrophils; 15 μM): 480.7 ± 61.7 bound cells in 0.2 mm^2
Rapid adhesion to Fibrinogen (neutrophils; 30 μM): 419.2 ± 30.7 bound cells in 0.2 mm^2
Rapid adhesion to ICAM-1 (neutrophils; 30 μM): 738.5 ± 29.3 bound cells in 0.2 mm^2
Adherent hPMNs to ICAM-1, Aβ oligo, Mean, Control (no inhibitor) (human primary PMNs): 464.0 and 500.8 and 464.5 and 455.0 and 475.5 and 470.7
Adhesion to fibrinogen or to ICAM-1 in lymphocytes (lymphocytes): did not induce adhesion
